This note sets out measurements from publication PMC9995618 (Journal of Genetic Engineering & Biotechnology, 2023).

The test system of the test is T1, tick larvae glutathione S transferase (TLGST).
T1 construct: native enzyme purified from larvae (42 kDa; 28 and 14 kDa subunits)
The test can be described thus: CDNB-GSH conjugation assay, Lineweaver-Burk and Ki plot. It is filed as biochemical, Hyalomma dromedarii.

As usually defined, the Ki is the dissociation constant of the complex between target and ligand, obtained from inhibition or displacement. With `O=C(O)c1cc[c]([Hg][Cl])cc1` [p-chloromercuribenzoic acid], affinity was put at a Ki of 300 µM.
